# Laboratory results reported in US20240122990A1, “COMPOSITIONS AND METHODS FOR CARDIOMYOCYTE TRANSPLANTATION” (UNIVERSITY OF WASHINGTON, priority 2021, published 2024).
# Key:
# [1] = tested on: riPSC-CM cardiomyocyte grafts; experiment: Allogeneic rhesus iPSC-CM transplantation into MHC-mismatched rhesus recipients, histopathological immune rejection of the graft; format: in vivo, rhesus macaque (Macaca mulatta); details: low-dose subcutaneous TAC alone, trough 5-10 ng/mL; 8 weeks post-transplant; 200×10^6 riPSC-CMs
# Description: To identify a minimal, steroid-sparing immunosuppression regimen for first-in-human allogeneic transplantation, a non-human primate (NHP) model was developed where rhesus iPSC-CM are transplanted into normal or infarcted hearts of MHC-mismatched recipients. Allogeneic iPSCs derived from rhesus macaque (Macaca mulatta) were differentiated into a highly enriched population of cardiomyocytes (riPSC-CMs). 200×10^6 riPSC-CMs were transplanted into 11 MHC-mismatched rhesus recipients. The primary study endpoint was the degree of histopathological immune rejection. […] Subsequent studies focused on 8-week engraftment, with promising regimens studied further out to 16 weeks.
# [2] = tested on: T-cell activation; details: relative to abatacept; cited from earlier work
compound,measurement,setting,value
C=CC[C@@H]1/C=C(\C)C[C@H](C)C[C@H](OC)[C@H]2O[C@@](O)(C(=O)C(=O)N3CCCC[C@H]3C(=O)O[C@H](/C(C)=C/[C@@H]3CC[C@@H](O)[C@H](OC)C3)[C@H](C)[C@@H](O)CC1=O)[C@H](C)C[C@@H]2OC [tacrolimus],degree of histopathological immune rejection of the graft,[1],moderate to severe rejection
Belatacept: derivative of abatacept comprising two amino acid alterations in the CD80/86 binding portion,increase in the ability to inhibit T-cell activation in vitro compared to abatacept,[2],10 fold
